In brackets after ≈: the same amount, converted by molar mass. Several values for one entry are separate records, joined by “and”; a condition that tells them apart may be missing. Equal values may be shown once. Activity calls are given as the source filed them. The calls are words filed in the database; no cut-off is given here.
How the values were obtained:
A10 [1] = assay: Disruption of actin cytoskeleton in rat A10 cells assessed as generation of binucleated cells at 7.3 nM after 24 hrs by TRITC-phalloidin assay; format: functional, cell-based
Candida albicans [2] = assay: Antifungal activity against wild-type Candida albicans; format: functional
HCT-116 = assay: Cytotoxicity against human HCT116 cells after 72 hrs by MTS reduction assay; format: functional, cell-based; settings: HCT-116, 72 h
Candida albicans [3] = assay: Antifungal activity against amphotericin B-resistant Candida albicans; format: functional
A10 [4] = assay: Disruption of actin cytoskeleton in rat A10 cells assessed as generation of binucleated cells at 70 nM after 24 hrs by TRITC-phalloidin assay; format: functional, cell-based

SMILES | Activity (A10 [1]) | MIC (Candida albicans [2]) [µg/mL] | IC50 (HCT-116) | MIC (Candida albicans [3]) [µg/mL] | Activity (A10 [4])
CO[C@H]1C[C@H](CC[C@H](C)[C@H](O)[C@H](C)[C@H]2OC(=O)/C=C/C(C)=C/C[C@H](O)C[C@@H]3C=CC[C@@H](C[C@H](OC)[C@@H](C)[C@@H](O)C[C@@H](O)[C@H](C)[C@@H]([C@@H](C)[C@@H](O)[C@@H](C)CC[C@H]4C[C@H](OC)C[C@H](C)O4)OC(=O)/C=C/C(C)=C/C[C@H](O)C[C@@H]4C=CC[C@@H](C[C@H](OC)[C@@H](C)[C@@H](O)C[C@@H](O)[C@@H]2C)O4)O3)O[C@@H](C)C1 | Active | – | – | – | –
C[C@@H]1[C@H](O)[C@@H](C)/C=C/C=C/C=C/C=C/C=C/C=C/C=C/[C@H](O[C@@H]2O[C@H](C)[C@@H](O)[C@H](N)[C@@H]2O)C[C@@H]2O[C@](O)(C[C@@H](O)C[C@@H](O)[C@H](O)CC[C@@H](O)C[C@@H](O)CC(=O)O[C@H]1C)C[C@H](O)[C@H]2C(=O)O [AMPHOTERICIN B] | – | 1.56 (≈ 1.69 µM) | – | – | –
CO[C@H]1C[C@H](CC[C@H](C)[C@H](O)[C@H](C)[C@H]2OC(=O)/C=C/C(C)=C/C[C@H](O)C[C@@H]3C=CC[C@@H](C[C@H](OC)[C@@H](C)[C@@H](O)C[C@@H](O)[C@H](C)[C@@H]([C@@H](C)[C@@H](O)[C@@H](C)CC[C@H]4C[C@H](OC)C[C@H](C)O4)OC(=O)/C(C)=C/C[C@H](O)C[C@@H]4C=CC[C@@H](C[C@H](OC)[C@@H](C)[C@@H](O)C[C@@H](O)[C@@H]2C)O4)O3)O[C@@H](C)C1 [HURGHADOLIDE A] | – | 31.3 (≈ 22.9 µM) | 365 nM and 0.5 µg/mL | 31.3 (≈ 22.9 µM) | –
CO[C@@H]1C[C@H](C)O[C@@H](C(O)C[C@H](C)[C@H](O)[C@H](C)[C@H]2OC(=O)/C=C/C(C)=C/C[C@H](O)C[C@@H]3C=CC[C@@H](C[C@H](OC)[C@@H](C)[C@@H](O)C[C@@H](O)[C@H](C)[C@@H]([C@@H](C)[C@@H](O)[C@@H](C)CC[C@H]4C[C@H](OC)C[C@H](C)O4)OC(=O)/C=C/C(C)=C/C[C@H](O)C[C@@H]4C=CC[C@@H](C[C@H](OC)[C@@H](C)[C@@H](O)C[C@@H](O)[C@@H]2C)O4)O3)C1 (some centres undefined) [Swinholide I] | – | 62.2 (≈ 44.2 µM) | 5.6 nM and 0.008 µg/mL | 500 (≈ 356 µM) | Active

From ChEMBL document CHEMBL1157239, “Hurghadolide A and swinholide I, potent actin-microfilament disrupters from the Red Sea sponge Theonella swinhoei” (J Nat Prod, 2006)
